We go through five molecules from patent US20240239790A1, “7-Morpholino-1,6-Naphthyridin-5-yl Derivatives and Pharmaceutical Compositions Thereof Useful as DNA-PK Inhibitor” (adMare Therapeutics Society, priority 2021, published 2024).

One assay has as its system HCT116 tumour spheroids. Put plainly: Spheroid + radiation colony forming cell survival assay (SF), HCT116. Type of assay: cell-based. Particulars: Homo sapiens, HCT-116, 8 Gy. How it is done:
(§1) Multicellular tumour spheroids determination of compound inhibition of pDNA-PK induction following radiation. Tumour spheroids were grown to approximately 0.5 mm in diameter and irradiated with 20 Gy in combination with inhibitor test compounds to determine their potency. Inhibitor concentration for 50% reduction in pDNA-PK induction (IC50) was determined via immunohistochemical staining in spheroid cryosections taken 2 hours following radiation. For cell survival endpoint 8 Gy radiation was used and 3 hours following radiation spheroids were dissociated, counted and plated for colony forming endpoint.
Spheroid+radiation colony forming cell survival assay (SF). Radiation 8 Gy. Drug: serial dilution 5 μM down to 10 nM (12 wells×2 repeat). Spheroids: 5-10 spheroids per well (300 to 500 μm diameter). HCT116. 5% 02 and 5% CO2. 96 well pate format for assay. Protocol: pre incubate 1 hour with drug, irradiate 8 Gy, post incubate 3 hrs with drug, dissociate spheroids and count cells and plate for colony forming assay. Endpoint: wait 4-7 days and count colonies. Analysis: determine EC50 concentration that increase cell kill by 50% over radiation alone.
(§2) Multicellular tumour spheroids were used to determine potency of test compounds in a 3D tissue environment using inhibition of pDNA-PK induction following radiation or cell survival as the endpoint. For the pDNA-PK endpoint HCT116 or FaDU tumour spheroids were grown to approximately 0.5 mm in diameter and irradiated with 20 Gy in combination with inhibitor test compounds to determine their potency. Experiments were carried out in 96 well plates containing 0.7 mls of MEM media containing 10% FBS and 10 mM glucose under 20% O2 & 5% CO2 at 37° C. Following dilution of compounds 1:1000 from DMSO stocks, compounds were serially diluted from 10 μM down to 3.5 nM and 5-10 spheroids added. 96 well plates were constantly stirred to avoid spheroids settling during the course of the experiment. The inhibitor concentration for 50% reduction in pDNA-PK induction (EC50) was determined via immunohistochemical staining in spheroid cryosections taken 2 hours following radiation using anti-pDNA-PK (ser 2056) and fixed immediately in formalin following sectioning. For cell survival endpoint 8 Gy radiation was used and, 3 hours following radiation, spheroids were dissociated, counted and plated for colony forming endpoint. Data presented in the table compound potency as EC50 [μM].

The subject of assay [1] is pDNA-PK induction in FaDU tumour spheroids. Briefly: Multicellular tumour spheroid + radiation, pDNA-PK (ser2056) inhibition, immunohistochemical endpoint, FaDU. Type of assay: cell-based. Conditions: Homo sapiens, 20 Gy. How it is done: as §1
Spheroid+radiation pDNA-PK. Radiation: 20 Gy. Drug: serial dilution 5 or 10 μM down to 3.5 nM (11 wells). Spheroids: 3-6 spheroids per well (300-500 μm diameter). 20% 02 and 5% CO2. 96 well plate format. Endpoint: fluorescent immunostain pDNA-PK ser2056 and image on microscope. Analysis: determine EC50 concentrations that decreases pDNA-PK induction by 50% after irradiation.
as §2

Where [2] appears, read: plated 3 hours following radiation, Example 9 Study 2, read-out: Spheroid Cell line: HCT116 Colony forming endpoint Surviving Fraction EC50.
[3] abbreviates: spheroids, 5% O2, concentration that increases cell kill by 50% over radiation alone, Example 8, read-out: Cell line: HCT116 Colony forming endpoint Surviving Fraction EC50.
The mark [4] stands for this setting: 2 hours following radiation, 20% O2, Example 9 Study 2, read-out: Spheroid Cell line: FaDU Immunohistochemical endpoint pDNA-PK inhibition EC50.
[5] abbreviates: 2 h, spheroids, 20% O2, Example 8, read-out: Cell line: FaDU Immunohistochemical endpoint pDNA-PK inhibition EC50.

Like-named read-outs stand apart in the source and are kept apart here.

Turning to `CN(C)C(=O)COc1cnc(N[C@H]2CC[C@@H](Oc3nc(N4CCOCC4)cc4ncccc34)CC2)nc1` [Compound 54, N,N-Dimethyl-2-((2-(((1s,4s)-4-((7-morpholino-1,6-naphthyridin-5-yl)oxy)cyclohexyl)amino)pyrimidin-5-yl)oxy)acetamide], the EC50 (in the assay on HCT116 tumour spheroids (setting [2]); with HCT116 tumour spheroids (setting [3]); in assay [1] (setting [4]); in assay [1] (setting [5])) was 10 to 500 nM each time.
Consider `CN(C)CCOc1cnc(N[C@H]2CC[C@@H](Oc3nc(N4CCOCC4)cc4ncccc34)CC2)nc1` [Compound 64, 5-(2-(Dimethylamino)ethoxy)-N-((1s,4s)-4-((7-morpholino-1,6-naphthyridin-5-yl)oxy)cyclohexyl)pyrimidin-2-amine], for which the EC50 (in the assay with HCT116 tumour spheroids (setting [2]); in the assay with HCT116 tumour spheroids (setting [3]); in assay [1] (setting [4]); in assay [1] (setting [5])) was 10 to 500 nM in each case.
`O=C(O)c1cnc2cc(N3CCOCC3)nc(O[C@H]3CC[C@@H](n4ccnc4)CC3)c2c1` [Compound 165, 5-(((1s,4s)-4-(1H-imidazol-1-yl)cyclohexyl)oxy)-7-morpholino-1,6-naphthyridine-3-carboxylic acid]: the EC50 with HCT116 tumour spheroids (setting [2]) and in the assay on HCT116 tumour spheroids (setting [3]) was 10000 to 100000 nM each time.
As to `O=C(NO)c1cnc2cc(N3CCOCC3)nc(O[C@H]3CC[C@@H](n4ccnc4)CC3)c2c1` [Compound 172, 5-(((1s,4s)-4-(1H-imidazol-1-yl)cyclohexyl)oxy)-N-hydroxy-7-morpholino-1,6-naphthyridine-3-carboxamide], the EC50 in assay [1] (setting [4]) and in assay [1] (setting [5]) was 1000 to 10000 nM throughout.
For the molecule `CS(=O)(=O)NC(=O)c1cnc2cc(N3CCOCC3)nc(O[C@H]3CC[C@@H](n4ccnc4)CC3)c2c1` [Compound 175, 5-(((1s,4s)-4-(1H-imidazol-1-yl)cyclohexyl)oxy)-N-(methylsulfonyl)-7-morpholino-1,6-naphthyridine-3-carboxamide], the EC50 in the assay on HCT116 tumour spheroids (setting [2]) and in the assay on HCT116 tumour spheroids (setting [3]) was 10000 to 100000 nM each time.
